Key:
human IgG = assay: Affinity measurement to IgG by surface plasmon resonance (BIAcore T200); assay type: binding; settings: ligand immobilized onto sensor chip, HBS-EP buffer pH 7.4
Experimental: The affinity analysis was performed by the following method. First, a solution containing equal amounts of 0.4 M EDC (1-ethyl-3-(3-dimethylaminopropyl)-carbodiimide) and 0.1 M sulfo-NHS (sulfo-N-hydroxysuccinimide)) was injected at a flow rate of […] onto a CMS sensor chip set in BIAcore T200 (GE healthcare), thereby activating the sensor chip. Then, under the condition of pH 5.5 (10 mM Na acetate), the purified protein (sfGFP-C-1Opt1) described above was immobilized onto the sensor chip. For the measurement, HBS-EP buffer (10 mM HEPES, 150 mM NaCl, 0.005% Tween 20, 3 mM EDTA, pH 7.4) was used, and the binding reaction was monitored by injecting 6.25, 12.5, 25, 50, 100, 200, and 400 nM human IgG for 180 seconds at a flow rate of […]. For measuring the dissociation reaction, only the buffer was injected for 600 seconds. The analysis of interaction parameters was performed using BIA evalution T100 software.
As Comparative Example 1, a scaffold protein (sfGFP having a His tag; DNA sequence: SEQ ID NO: 40, amino acid sequence: SEQ ID NO: 41) to which an IgG-binding peptide was not fused was expressed and purified in the same manner as in Example 1, and affinity was measured.
Proteins including two IgG-binding peptides, each consisting of the amino acid sequences represented by SEQ ID NO: 45, SEQ ID NO: 47, and SEQ ID NO: 49 (sfGFP-N C-2Opt1GS12 (DNA sequence: SEQ ID NO: 44), sfGFP-173 C-2Opt1 GS12 (DNA sequence: SEQ ID NO: 46), and sfGFP-173 C-2Opt1GS13 (DNA sequence: SEQ ID NO: 48)) were expressed and purified by the same method as in Example 1, and the affinity was measured.
As Comparative Example 2, the affinity measurement of the peptide (amino acid sequence: SEQ ID NO: 18) prepared by chemical synthesis was carried out in the same manner as in Example 1.

[1] = tested on: human serum-derived γ-globulin; assay: Dynamic binding capacity (DBC) measurement on ligand-immobilized NHS-activated prepack column; settings: 1 mL column; 1 mg/mL γ-globulin at 1 mL/min; 10% breakthrough at 280 nm; equimolar ligand (7.3 mg protein or 0.5 mg peptide)
Experimental: To examine whether the IgG-binding peptide divalent fusion protein can be used as an affinity ligand for human antibody purification, the protein prepared in Example 2 (sfGFP-173 C-2Opt1 GS12) was immobilized on an NHS-activated prepack column (GE Healthcare), and the adsorption performance was evaluated. The protein-immobilized column was prepared by the following method. A syringe was used to feed the solution.
5 mL of 1 mM hydrochloric acid was fed to a NHS-activated prepack column with a volume of 1 mL to remove the isopropanol solution in the column. Then, 1 mL of a coupling solution (200 mM carbonate buffer, 500 mM sodium chloride, pH 8.3) containing 7.3 mg of an IgG-binding peptide fusion protein was fed and immobilized at room temperature for 1 hour. The unreacted NHS ester was blocked by adding tris-hydroxymethylaminomethane. Finally, 5 mL of an adsorption solution (20 mM phosphate buffer, 150 mM sodium chloride, pH 7.4) was fed and used for DBC measurement.
The DBC measurement was performed using a liquid chromatography instrument AKTAexplore (GE Healthcare). […] The DBC was determined from the amount of the sample fed until the value of an absorbance at 280 nm excluding the non-adsorbed component reached 10% of the absorbance of the entire sample. […]

Kd (human IgG; human IgG as analyte): 14 nM
DBC (dynamic binding capacity) [1]: 6.9 mg/mL-column
Sequence: GPDCAYHRGELVWCTFH [Comparative Example 2, reference compound]
kon (human IgG; 6.25-400 nM human IgG injected 180 s): 330000 M⁻¹ s⁻¹
koff (human IgG; buffer only injected 600 s for dissociation): 0.0048 s⁻¹

— patent US11643474B2, “Peptide fusion protein” (KAGOSHIMA UNIVERSITY, priority 2018, dated 2023)
